Results taken from patent publication US20190328857A1, “CALR AND JAK2 VACCINE COMPOSITIONS” (IO Biotech ApS, priority 2016, published 2019).

Tests used:
Format in all cases: cell-based, human
PBMC from healthy donors [1] = experiment: IFN-γ ELISPOT on PBMC from healthy donors; conditions: for healthy donors with a significant response in IFN-γ ELISPOT / healthy donors with a significant response in IFN-γ ELISPOT, percentage: of 21 (CALRLong1), 23 (CALRLong2), 9 (CALRLong4), 7 (CALRLong5) analyzed
Excerpt: (§1) The ELISPOT assay is based on the detection of antigen induced release of cytokines—most often IFN-γ—by single T-cells upon triggering of its T-cell receptor. Reactivity of a single T-cell can be detected and quantified via binding of the respective cytokine on special nitrocellulose filter plates. When a T-cell recognizes the peptide epitope examined, the T-cell releases cytokines that are detected by a colorimetric reaction using an enzyme conjugated to a secondary cytokine specific antibody. The reaction product is visible as a spot. Ideally, each spot represents the cytokines secreted by a single activated cell. ELISPOTs were performed and analyzed as described previously (Munir et al., 2013). PBMCs were tested in different concentrations to ensure an optimal response. The distribution-free resampling method, described by Moodie et al., was used for statistical analyses and a p-value ≤0.05 was deemed a T-cell response (Moodie et al., 2010).
PBMC from healthy donors were analyzed by IFN-γ ELISPOTs as described in Example 1 for immune responses against the CARL-mutant epitopes CALRLong1 ([…]), CALRLong2 ([…]), CALRLong4 ([…]) and CALRLong5 ([…]). […]

[2] = test system: CALRLong1-specific T-cells; experiment: Intracellular cytokine staining of CALRLong1-specific T-cell culture stimulated with peptide; conditions: after three stimulations with autologous dendritic cells
Method: Fresh PBMCs were first enriched for CD14+ cells using MACS CD14 MicroBeads (Miltenyi Biotech GmbH, Bergisch Gladbach, Germany). This was considered day 0. The resulting monocyte-depleted cell culture was termed peripheral blood lymphocytes (PBL). The enriched cells were cultured using CellGro (CellGenix GmbH, Freiburg, Germany), and stimulated with GM-CSF (1000 U/ml) and IL-4 (250 U/ml) (both PeproTech, Rocky Hill, N.J., USA). The next day, to generate fast dendritic cells (fastDC), we treated half of the enriched cells with a maturation cocktail comprising IFN-γ (1000 U/ml) (PeproTech, Rocky Hill, N.J., USA), PolyI:C (20 μg/ml) (Sigma-Aldrich, St. Louis, Mo., USA) and CALRLong1 peptide. PBL were cultured overnight in X-VIVO medium (Lonza Group Ltd., Basel, Switzerland) and then stimulated with half of the fastDC. The other half of the fastDC were frozen for later use.
The other half of the enriched cells were cultured until day 7, at which time these cells were treated with the same maturation cocktail as above, to generate mature dendritic cells (mDC). The next day, these mDC were used to stimulate PBLs. On day 9, IL-2 (120 U/mL) (Novartis, Basel, Switzerland) and IL-7 (40 U/ml) (PeproTech, Rocky Hill, N.J., USA) was added. On day 14, we thawed the fastDC that had been frozen on day 2, and used these cells to stimulate the PBL. On day 16 and day 24 we added, IL-2 and IL-7 in the concentrations mentioned above.
At day 38 of the T-cell culture, we stimulated the T-cells with CALRLong1 peptide for 4 h and next isolated IFN-γ secreting cells using the MACS IFN-γ secretion assay. The isolated cells were expanded using a rapid expansion protocol. The vast majority of cells that reacted to CALRLong1 peptide stimulation were CD4^+ T-cells; thus, we isolated CD4^+ T cells from the REP culture using the EasySep Human CD4 isolation Kit (StemCell Technologies, Inc., Vancouver, BC, Canada). The enriched CD4^+ T-cells were then cloned by limiting dilution, and growing T-cell clones were rapidly expanded using feeder cells and high dose IL-2 (6000 u/ml). T-cell receptor clonotyping of the cloned cells was performed by denaturing gradient gel electrophoresis as previously described.
Frozen T-cells were thawed one day prior to assaying, and in experiments examining CD107a expression, a CD107a-PE antibody was added to cells directly after addition of peptide or target cells. After one hour of stimulation, protein-transport inhibitor Brefeldin A (BD Biosciences, San Jose, Calif., USA) was added to the cells which were then stimulated for four h. Cells were stained with CD3-APC-H7, CD4-FITC, CD8-PerCP, IFN-γ-APC, TNF-α-BV421 and Fixable Viability Stain 510 (BD Biosciences, San Jose, Calif., USA), permeabilized and washed with Permeabilization Reagent/Diluent and fixation-permeabilization buffer (AH Diagnostics, Aarhus, Denmark). Cells were acquired with a FACS Canto II (BD Biosciences) and analyzed using FACSDiva software. All effector cell stimulations were run in triplicate wells if not otherwise specified.

[3] = test system: PBMCs from the CALRmut donor; experiment: Spontaneous ex-vivo ELISPOT, 48 hour assay; conditions: high background, rules of Moodie et al.
Method: We established a CALRLong1-specific T-cell culture from a CALRmut patient with a strong […] T-cell response against CALRLong1 peptide. PBL were stimulated three times with autologous dendritic cells, and T-cells were analyzed using intracellular cytokine staining (ICS). […] However, CD4^+ T cells responded to CALRLong1 (FIG. 7). […] Since CALRLong4 peptide comprises the shared 36 amino acid C-terminus found in all CALRmut patients, we tested PBMCs from the donor for a spontaneous ex-vivo ELISPOT response in a 48 hour assay.

[4] = test system: PBMC from CALR-mutated MPN patients; experiment: IFN-γ ELISPOT for spontaneous T-cell responses in PBMC from CALR-mutated MPN patients
Excerpt: The study was approved by the local ethics committee, and all patients signed informed consent, in accordance with the Helsinki Declaration before study participation. We included 31 CALRmut MPN patients with the following diagnoses: ET (n=13), PMF (n=12), post-ET MF (n=4), or prefibrotic MF (n=2). Peripheral blood mononuclear cells (PBMC) were isolated with Lymphoprep and frozen in fetal calf serum with 10% dimethyl sulfoxide. First, we scrutinized PBMC from two MPN patients for the presence of spontaneous T-cell responses against two CALR derived peptides, CALR Long1 ([…], SEQ ID NO: 2) and CALR Long2 ([…], SEQ ID NO: 3) using the highly sensitive and solid interferon gamma (IFN-γ) Enzyme-Linked ImmunoSPOT (ELISPOT) secretion assays (FIGS. 1A and 1C). The ELISPOT has proven to be the central assay in studies focusing on identification on novel tumor antigens by the characterization of novel tumor antigen responses in PBMC from cancer patients. Thus, this assay has previously been utilized for the identification of novel tumor antigens based on spontaneous immunity in cancer patients (Andersen et al., 2005).
as §1
After the promising responses in the first two patients we analyzed PBMC from additional 29 CALR-mutated MPN patients. […] Of the 24 evaluable patients, 10 had ET and 14 had MF; the latter group comprised 11 patients with PMF, 2 with post-ET MF, and 1 with prefibrotic MF. […] Furthermore, we examined PBMC from two patients in a tumor necrosis factor alpha (TNF-α) ELISPOT.

[5] = test system: PBMC / T-cells from CALRmut MPN patients; experiment: Intracellular cytokine staining of patient PBMC and of DC-stimulated T-cell culture; conditions: PBMC from patient C39
Excerpt: Next, we chose to analyze PBMC from four patients with a response against CALR Long1 and CALR Long2 peptides using intracellular cytokine staining. Although this method is less sensitive than ELISPOT, it allows elucidating which immune cells secrete the cytokine identified in ELISPOT. Hereby, we could determine whether the reacting cells were T-cells and, if so, if the responding cells were CD4 T-cells or CD8 T-cells. In short, cells were stimulated with CALR Long1 or with a scrambled peptide ([…]) as control. For surface markers we employed 4 μl NIR, 10 μl CD4 PerCP, 2 μl CD8 Pacific Blue, and 10 μl CD3 FITC and for intracellular staining we used 2 μl anti-TNF-α and anti IFN-γ antibodies conjugated with either PE-Cy7 or APC. Washing, permeabilization and staining procedures followed previously described methods (Munir, Andersen et al., 2013). […] To confirm that the responses identified indeed were T-cell responses against CALR Long1, we generated dendritic cells from patient C42 using previously described methods. Autologous PBMC were stimulated three times with the dendritic cells, which had been pulsed with CALR Long1, and we hereby generated a CALR Long1 specific T-cell culture. […] The frequent detection of T-cell responses indicate, that the CALR mutations encode highly immunogenic cancer antigens, which represent ideal targets for anti-cancer immune therapy.

PBMC from healthy donors [6] = experiment: TNF-α ELISPOT on PBMC from healthy donors; conditions: ten healthy controls analyzed per peptide
Excerpt: Of note, all patients with a TNF-α response against CALRLong1 and CALRLong2 did also display an IFN-g response in ELISPOT (FIGS. 14-15).

| Sequence | immune responses of healthy donors in IFN-γ ELISPOT (PBMC from healthy donors [1]) | healthy donors with a significant response in IFN-γ ELISPOT (PBMC from healthy donors [1]) | healthy donors with a significant response in IFN-γ ELISPOT, percentage (PBMC from healthy donors [1]) [%] | response of CD4^+ T cells of the CALRLong1 bulk culture to peptide stimulation [2] | spontaneous ex-vivo ELISPOT response [3] | patients that responded in IFN-γ ELISPOT, percentage ([4]; 18 evaluable patients for CALR Long1, 24 for CALR Long2) [%] | patients that responded in IFN-γ ELISPOT ([4]; 18 evaluable patients for CALR Long1, 24 for CALR Long2, p-value ≤0.05 deemed a T-cell response) [patients] | response confirmed in additional ELISPOT ([4]; samples from 5 of the responding patients retested) [patients] | type of T-cell response, intracellular cytokine staining [5] | healthy controls with a significant TNF-α response (PBMC from healthy donors [6]) |
| --- | --- | --- | --- | --- | --- | --- | --- | --- | --- | --- |
| RRMRRTRRKMRRKMSPARPRTSCREACLQGWTEA (listed as Homo sapiens) [CALRLong4] | strong immune responses | 9 | 100 | reacted | significant response | – | – | – | – | – |
| TRRKMRRKMSPARPRTSCREACLQGWTEA (listed as Homo sapiens) [CALRLong2] | strong immune responses | 18 | 78 | did not respond | – | 42 | 10 | 4 | CD4 T-cell response | Five |
